These results are taken from patent US8735584B2 (Merck Patent GmbH, priority 2008, dated 2014).

pIC50: −log10 of the molar value.

The assay has as its target T1, GST-Aurora A (Homo sapiens, UniProt O14965).
T1 construct: N-terminal GST fusion with full length Aurora A (1-403 amino acids); purchased Carna Biosciences 05-101
T1 sequence (O14965 1-403): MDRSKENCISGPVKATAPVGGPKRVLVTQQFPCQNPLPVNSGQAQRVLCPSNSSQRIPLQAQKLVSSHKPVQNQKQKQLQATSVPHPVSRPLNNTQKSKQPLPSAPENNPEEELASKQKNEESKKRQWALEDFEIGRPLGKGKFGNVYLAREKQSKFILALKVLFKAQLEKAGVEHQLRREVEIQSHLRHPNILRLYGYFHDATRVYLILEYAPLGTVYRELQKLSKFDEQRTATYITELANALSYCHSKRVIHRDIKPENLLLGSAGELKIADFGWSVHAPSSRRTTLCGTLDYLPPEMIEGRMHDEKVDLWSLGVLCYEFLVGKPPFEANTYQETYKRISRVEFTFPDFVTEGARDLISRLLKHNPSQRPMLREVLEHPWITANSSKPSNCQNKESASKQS
The assay can be described thus: Aurora A IC50, Caliper LC3000 mobility shift assay. In kind it is biochemical. The conditions noted are these: LC3000 method; 15 uM ATP (the KM value); read-out: Aurora Kinase A Activity (IC50). The essentials: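 Readout: percent conversion of FITC-LRRASLG (1 uM) to phosphopeptide, resolved electrophoretically on a Caliper LC3000, fitted against inhibitor concentration for IC50. Reaction: N-terminal GST full-length Aurora A, ATP at its KM (15 uM), pH 7.5 HEPES with MgCl2/DTT, 25 C for 90 min.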
In the case of `O=C(Nc1ccc(Nc2ccnc3[nH]c(=O)c4ccccc4c23)cc1)c1ccc(F)cc1` [Compound 382, 4-Fluoro-N-[4-(6-oxo-5,6-dihydro-benzo[c][1,8]naphthyridin-1-ylamino)-phenyl]-benzamide], the pIC50 was greater than 7.96.
The figure for `O=C(Cc1ccccc1)Nc1ccc(Nc2ccnc3[nH]c(=O)c4ccccc4c23)cc1` [Compound 350, N-(4-(6-Oxo-5,6-dihydrobenzo[c][1,8]naphthyridin-1-ylamino)phenyl)-2-phenylacetamide] is 7.00 to 7.96; for `O=C(Nc1ccc(Nc2ccnc3[nH]c(=O)c4c(C(=O)O)cccc4c23)cc1)c1ccccc1` [Compound 434, 1-[4-Benzoylamino-phenylamino)-6-oxo-5,6-dihydro-benzo[c][1,8]naphthyridin-7-carboxylic acid] it is 7.00 to 7.96.
Turning to `CN(C)CCCNC(=O)c1cccc2c1c(=O)[nH]c1nccc(Nc3ccc(NC(=O)c4ccc(F)cc4C(F)(F)F)cc3)c12` [Compound 441], the pIC50 is greater than 7.96.
The figure for `Cc1cc(Nc2ccnc3[nH]c(=O)c4ccccc4c23)n(CC(=O)Nc2ccccc2)n1` [Compound 308, 2-(3-Methyl-5-(6-oxo-5,6-dihydrobenzo[c][1,8]naphthyridin-1-ylamino)-1H-pyrazol-1-yl)-N-phenylacetamide] is less than 7.00; for `O=C(Nc1ccc(Nc2ccnc3[nH]c(=O)c4ccccc4c23)cc1)c1ccc(C(F)(F)F)cc1F` [Compound 397, 2-Fluoro-N-[4-(6-oxo-5,6-dihydro-benzo[c][1,8]naphthyridin-1-ylamino)-phenyl]-4-trifluoromethyl-benzamide] it is greater than 7.96; for `NC(=O)c1ccc2c(=O)[nH]c3nccc(Nc4ccc(NC(=O)c5ccccc5)cc4)c3c2c1` [Compound 282, 1-(4-benzamidophenylamino)-6-oxo-5,6-dihydrobenzo[c][1,8]naphthyridine-9-carboxamide] it is greater than 7.96.
For `O=C(Nc1ccc(Nc2ccnc3[nH]c(=O)c4ccccc4c23)cc1)c1cccnc1C(F)(F)F` [Compound 498, N-(4-(6-Oxo-5,6-dihydrobenzo[c][1,8]naphthyridin-1-ylamino)phenyl)-2-(trifluoromethyl)nicotinamide], the pIC50 was greater than 7.96.
As for `O=C(Nc1ccc(Nc2ccnc3[nH]c(=O)c4ccccc4c23)cc1)C1(c2ccccc2)CC1` [Compound 502, N-(4-(6-Oxo-5,6-dihydrobenzo[c][1,8]naphthyridin-1-ylamino)phenyl)-1-phenylcyclopropanecarboxamide], the pIC50 was 7.00 to 7.96.
The figure for `COc1cc2c(=O)[nH]c3nccc(Nc4ccccc4F)c3c2cc1OC` [Example 216, 1-(2-Fluoro-phenylamino)-8,9-dimethoxy-5H-benzo[c][1,8]naphthyridin-6-one] is 7.00 to 7.96; for `CCOC(=O)CCCNc1ccc2c(=O)[nH]c3ncccc3c2c1` [Compound 460, Ethyl 4-(6-oxo-5,6-dihydrobenzo[c][1,8]naphthyridin-9-ylamino)butanoate] it is less than 7.00; for `CN(C)CCNC(=O)c1ccc2c(=O)[nH]c3nccc(Cl)c3c2c1` [Compound 296, 1-Chloro-N-(2-(dimethylamino)ethyl)-6-oxo-5,6-dihydrobenzo[c][1,8]naphthyridine-9-carboxamide] it is less than 7.00.
The same measure for `O=C(Nc1ccccc1)Nc1ccc(Nc2ccnc3[nH]c(=O)c4ccccc4c23)cc1` [Compound 343, 1-(4-(6-Oxo-5,6-dihydrobenzo[c][1,8]naphthyridin-1-ylamino)phenyl)-3-phenylurea]: greater than 7.96.
The same measure for `CCOC(=O)c1cccc2c1c(=O)[nH]c1nccc(Nc3ccc(NC(=O)c4ccccc4)cc3)c12` [Compound 423, 1-[4-Benzoylamino-phenylamino)-6-oxo-5,6-dihydro-benzo[c][1,8]naphthyridin-7-carboxylic acid ethyl ester]: greater than 7.96; for `O=C(c1cccn(-c2ccc(F)cc2)c1=O)N1CCOc2cc(Oc3ccnc4[nH]c(=O)c5ccccc5c34)ccc21` [Example 228, 1-{4-[1-(4-Fluoro-phenyl)-2-oxo-1,2-dihydro-pyridine-3-carbonyl]-3,4-dihydro-2H-benzo[1,4]oxazin-7-yloxy}-5H-benzo[c][1,8]naphthyridin-6-one]: less than 7.00; for `O=C(Cc1cc(Nc2ccnc3[nH]c(=O)c4ccccc4c23)n[nH]1)Nc1cccc(F)c1` [Compound 314, N-(3-Fluorophenyl)-2-(3-(6-oxo-5,6-dihydrobenzo[c][1,8]naphthyridin-1-ylamino)-1H-pyrazol-5-yl)acetamide]: less than 7.00.
For `CN(C)CCNC(=O)c1ccc2c(=O)[nH]c3nccc(Nc4ccc(NC(=O)c5ccc(F)cc5C(F)(F)F)cc4)c3c2c1` [Compound 297, N-(2-(Dimethylamino)ethyl)-1-(4-(4-fluoro-2-(trifluoromethyl)benzamido)phenylamino)-6-oxo-5,6-dihydrobenzo[c][1,8]naphthyridine-9-carboxamide], the negative-log IC50 (pIC50) was greater than 7.96.
The figure for `O=C(Nc1ccc(Nc2ccnc3[nH]c(=O)c4ccc(C(F)(F)F)cc4c23)cc1)c1ccc(F)cc1C(F)(F)F` [Compound 404, 4-Fluoro-N-[4-(9-trifluoromethyl-6-oxo-5,6-dihydro-benzo[c][1,8]naphthyridin-1-ylamino)-phenyl]-2-trifluoromethyl-benzamide] is greater than 7.96; for `O=c1[nH]c2ncccc2c2cc(NCc3ccccc3Br)ccc12` [Compound 469, 9-(2-Bromobenzylamino)benzo[c][1,8]naphthyridin-6(5H)-one] it is 7.00 to 7.96.
`O=c1[nH]c2nccc(Nc3ccc(NS(=O)(=O)c4ccccc4)cc3)c2c2ccccc12` [Compound 341, N-(4-(6-Oxo-5,6-dihydrobenzo[c][1,8]naphthyridin-1-ylamino)phenyl)benzenesulfonamide]: the pIC50 was less than 7.00.
The figure for `O=C(c1cc(F)cc(F)c1)N1CCC(CNc2ccnc3[nH]c(=O)c4ccccc4c23)C1` (stereo not drawn) [Compound 362, 1-((1-(3,5-Difluorobenzoyl)pyrrolidin-3-yl)methylamino)benzo[c][1,8]naphthyridin-6(5H)-one] is less than 7.00; for `O=c1[nH]c2ncccc2c2cc(NCc3cccnc3)ccc12` [Example 123, 9-[(Pyridin-3-ylmethyl)-amino]-5H-benzo[c][1,8]naphthyridin-6-one] it is less than 7.00; for `O=C(Nc1ccc(Nc2ccnc3[nH]c(=O)c4ccccc4c23)cc1)C1(c2ccccc2)CCCC1` [Compound 494, N-(4-(6-Oxo-5,6-dihydrobenzo[c][1,8]naphthyridin-1-ylamino)phenyl)-1-phenylcyclopentanecarboxamide] it is 7.00 to 7.96.
Take `CC(=O)Nc1ccc(C#Cc2ccnc3[nH]c(=O)c4ccccc4c23)cc1` [Compound 265]: the negative-log IC50 (pIC50) was less than 7.00.
The figure for `COc1cccc(CNc2ccc3c(=O)[nH]c4ncccc4c3c2)c1` [Example 42, 9-(3-Methoxy-benzylamino)-5H-benzo[c][1,8]naphthyridin-6-one] is less than 7.00.
The figure for `O=C(Nc1ccc(Nc2ccnc3[nH]c(=O)c4ccccc4c23)cc1)C1(C(F)(F)F)CCCC1` [Compound 500, N-(4-(6-Oxo-5,6-dihydrobenzo[c][1,8]naphthyridin-1-ylamino)phenyl)-1-(trifluoromethyl)cyclopentanecarboxamide] is 7.00 to 7.96; for `CN(C)CCNC(=O)c1cccc2c1c(=O)[nH]c1nccc(Nc3ccc(NC(=O)c4ccccc4)cc3)c12` [Compound 435, 1-[4-Benzoylamino-phenylamino)-6-oxo-5,6-dihydro-benzo[c][1,8]naphthyridin-7-carboxylic acid 2-dimethylamino-ethyl amide] it is greater than 7.96.
The same measure for `O=C(Nc1ccc(Nc2ccnc3[nH]c(=O)c4ccccc4c23)cc1)c1ccc(F)cc1C(F)(F)F` [Compound 378, 4-Fluoro-N-[4-(6-oxo-5,6-dihydro-benzo[c][1,8]naphthyridin-1-ylamino)-phenyl]-2-trifluoromethyl-benzamide]: greater than 7.96.
With `O=C(Nc1ccc(Nc2ccnc3[nH]c(=O)c4c(O)cccc4c23)cc1)c1ccc(F)cc1C(F)(F)F` [Compound 445, 4-Fluoro-N-[4-(7-hydroxy-6-oxo-5,6-dihydro-benzo[c][1,8]naphthyridin-1-ylamino)-phenyl]-2-trifluoromethyl-benzamide], the pIC50 was 7.00 to 7.96.
The figure for `O=C(Nc1ccc(Nc2ccnc3[nH]c(=O)c4c(C(=O)NCCO)cccc4c23)cc1)c1ccc(F)cc1C(F)(F)F` [Compound 444, 1-[4-(4-Fluoro-2-trifluoromethyl-benzoylamino)-phenylamino)-6-oxo-5,6-dihydro-benzo[c][1,8]naphthyridin-7-carboxylic acid 2-hydroxy ethyl amide] is greater than 7.96.
The same measure for `O=C(Cc1ccccc1)N1CCC(Nc2ccnc3[nH]c(=O)c4ccccc4c23)C1` (stereo not drawn) [Compound 369, 1-(1-(2-Phenylacetyl)pyrrolidin-3-ylamino)benzo[c][1,8]naphthyridin-6(5H)-one]: less than 7.00.
As to `O=C(O)c1ccc2c(c1)c(=O)[nH]c1nccc(Nc3ccc(NC(=O)c4ccccc4)cc3)c12` [Compound 268, 1-(4-Benzamidophenylamino)-6-oxo-5,6-dihydrobenzo[c][1,8]naphthyridine-8-carboxylic acid], the pIC50 was greater than 7.96.
The figure for `O=C(Nc1ccc(Nc2ccnc3[nH]c(=O)c4ccccc4c23)cc1)c1cccnc1` [Compound 344] is 7.00 to 7.96.
